Patent publication US7875715B2, “Compounds for the treatment of multi-drug resistant bacterial infections” (AstraZeneca AB, priority 2005, dated 2011)
pIC50: −log10 of the molar value. Values after ≈ are worked out from the molar mass of the structure shown. Where a name gives a salt, the structure may show the parent alone. Read-outs that look alike come from different tables or passages of the source.

Tests used:
GyrB ATPase = GyrB ATPase (Escherichia coli, UniProt P0AES4+P0AES6); experiment: ATPase assay: inhibition of GyrB ATPase activity, ammonium molybdate/malachite green phosphate detection; format: biochemical, E. coli; conditions: for IC50: 4 nM E. coli GyrA, 4 nM E. coli GyrB, 250 μM ATP, read-out: gyrase ATPase (converted)
Method: Compounds were tested for inhibition of GyrB ATPase activity using an ammonium molybdate/malachite green-based phosphate detection assay (Lanzetta, P. A., L. J. Alvarez, P. S. Reinach, and O. A. Candia, 1979, 100: 95-97). Assays were performed in multiwell plates in 100 μl reactions containing: 50 mM TRIS buffer pH 7.5, 75 mM ammonium acetate, 5.5 mM magnesium chloride, 0.5 mM ethylenediaminetetraacetic acid, 5% glycerol, 1 mM 1,4-dithio-DL-threitol, 200 nM bovine serum albumin, 16 μg/ml sheared salmon sperm DNA, 4 nM E. coli GyrA, 4 nM E. coli GyrB, 250 μM ATP, and compound in dimethylsulfoxide. Reactions were quenched with 150 μL of ammonium molybdate/malachite green detection reagent containing 1.2 mM malachite green hydrochloride, 8.5 mM ammonium molybdate tetrahydrate, and 1 M hydrochloric acid. Plates were read in an absorbance plate reader at 625 nm and percent inhibition values were calculated using dimethylsulfoxide (2%)-containing reactions as 0% inhibition and novobiocin-containing (2 μM) reactions as 100% inhibition controls. Compound potency was based on IC50 measurements determined from reactions performed in the presence of 10 different compound concentrations.

DNA gyrase = DNA gyrase (Escherichia coli, UniProt P0AES4+P0AES6); experiment: Supercoiling assay: inhibition of Escherichia coli DNA supercoiling activity; format: biochemical
Method: Compounds were tested for inhibition of Escherichia coli DNA supercoiling activity as follows. Assays were performed in polypropylene multiwell plates in 50 μl reactions containing 35 mM Tris-HCl (pH 7.5), 24 mM KCl, 4 mM MgCl2, 2 mM dithiothreitol, 1.8 mM spermidine, 5% (v/v) glycerol, 200 nM bovine serum albumin, 1.25% (v/v) DMSO, 3 mM ATP, 10 ng/ml relaxed pBR322 plasmid, 0.6 nM DNA gyrase, and test compound. Reactions were quenched after 1 hour by the addition of 10 μl of 30% (w/v) Ficoll-400, 10 mM EDTA, and 5% sodium dodecyl sulfate. Twenty-five μl of each sample was loaded onto a 0.8% (w/v) agarose gel and electrophoresed. The gel and gel buffer contained 1×TBE buffer (89 mM Tris base, 89 mM boric acid, and 2 mM EDTA at pH 8.3). After electrophoresis for 3 hours at 70V, the gel was stained with ethidium bromide and visualized by excitation with ultraviolet light. The fluorescence intensity of the most supercoiled plasmid band was used to measure gyrase activity. Compound potency was based IC50 measurements determined from reactions performed with eight 2-fold serial dilutions of each compound and a control without compound.

Escherichia coli = experiment: Bacterial susceptibility testing in liquid media (MIC), E. coli; format: cell-based; conditions: lowest concentration reducing growth by 80% or more, 37° C., 24 hours
Method: (§1) Compounds were tested for antimicrobial activity by susceptibility testing in liquid media in a 96 well format. Compounds were dissolved in dimethylsulfoxide and tested in 10 doubling dilutions in the susceptibility assays. The organisms used in the assay were grown overnight on suitable agar media and then suspended in a liquid medium appropriate for the growth of the organism. The suspension was a 0.5 McFarland and a further 1 in 10 dilution was made into the same liquid medium to prepare the final organism suspension in 100 μL. Plates were incubated under appropriate conditions at 37° C. for 24 hours prior to reading. The Minimum Inhibitory Concentration (MIC) was determined as the lowest drug concentration able to reduce growth by 80% or more.
(§2) Compounds were evaluated against a panel of Gram-positive species, including Staphylococcus aureus, Streptococcus pneumoniae, Streptococcus pyogenes, and Enterococcus faecium. In addition, compounds were evaluated against a panel of Gram-negative species including Haemophilus influenzae, Escherichia coli and Moraxella catarrhalis.

Streptococcus pneumoniae = experiment: Bacterial susceptibility testing in liquid media (MIC), S. pneumo; format: cell-based; conditions: MIC: lowest concentration reducing growth by 80% or more; 37° C., 24 hours
Method: as §1, §2

melting point | SMILES | MIC (Escherichia coli) [µg/mL] | S. pneumo (Streptococcus pneumoniae) [microgram/ml] | also measured
130 °C | COC(=O)c1cc2ccc(OC)cc2n1CCN1CCC(NCc2cc3c(cn2)OCCO3)CC1 [Example 3, Methyl 1-(2-{4-[(2,3-dihydro[1,4]dioxino[2,3-c]pyridin-7-ylmethyl)amino]piperidin-1-yl}ethyl)-6-methoxy-1H-indole-2-carboxylate] |  |  | 
150 to 155 °C | O=C1COc2ccc(CNC3CCN(CCn4c(=O)ccc5ccc(F)cc54)CC3)nc2N1 (as salt: salt) [Example 9, 6-[({1-[2-(7-Fluoro-2-oxoquinolin-1(2H)-yl)ethyl]piperidin-4-yl}amino)methyl]-2H-pyrido[3,2-b][1,4]oxazin-3(4H)-one] |  |  | 
170 to 180 °C | O=C1COc2ccc(CNC3CCN(CCn4c(=O)ccc5c(F)cc(F)cc54)CC3)nc2N1 (as salt: salt) [Example 8, 6-[({1-[2-(5,7-Difluoro-2-oxoquinolin-1(2H)-yl)ethyl]piperidin-4-yl}amino)methyl]-2H-pyrido[3,2-b][1,4]oxazin-3(4H)-one] |  |  | 
150 to 180 °C | O=C(O)[C@H]1CN(CCn2c(=O)ccc3c(F)cc(F)cc32)CC[C@H]1NC/C=C/c1cc(F)ccc1F (as salt: hydrochloride) [Example 13, (3S,4R)-1-[2-(5,7-Difluoro-2-oxoquinolin-1(2H)-yl)ethyl]-4-{[(2E)-3-(2,5-difluorophenyl)prop-2-en-1-yl]amino}piperidine-3-carboxylic acid] |  |  | 
158 to 170 °C | O=C1COc2ccc(CNC3CCN(CCn4c(=O)ccc5ccc(F)c(F)c54)CC3)nc2N1 (as salt: salt) [Example 7, 6-[({1-[2-(7,8-Difluoro-2-oxoquinolin-1(2H)-yl)ethyl]piperidin-4-yl}amino)methyl]-2H-pyrido[3,2-b][1,4]oxazin-3(4H)-one] |  |  | 

Continued, molecule first:

SMILES | melting point | MIC (Escherichia coli) [µg/mL] | S. pneumo (Streptococcus pneumoniae) [microgram/ml] | also measured
O=C(O)[C@@H]1CN(CCn2c(=O)ccc3c(F)cc(F)cc32)CC[C@H]1NC/C=C/c1cc(F)ccc1F (as salt: hydrochloride) [Example 17, (3R,4R)-1-[2-(5,7-Difluoro-2-oxoquinolin-1(2H)-yl)ethyl]-4-{[(2E)-3-(2,5-difluorophenyl)prop-2-en-1-yl]amino}piperidine-3-carboxylic acid] | > 205 °C |  |  | 
N#Cc1ccc2ccc(=O)n(CCN3CCC(NCc4ccc5c(n4)NC(=O)CO5)CC3)c2c1 [Example 6, 2-Oxo-1-[2-(4-{[(3-oxo-3,4-dihydro-2H-pyrido[3,2-b][1,4]oxazin-6-yl)methyl]amino}piperidin-1-yl)ethyl]-1,2-dihydroquinoline-7-carbonitrile] | 212 °C |  |  | 
O=C(O)[C@@H]1CN(CCn2c(=O)ccc3c(F)cc(F)cc32)CC[C@H]1NCc1cc2c(cn1)OCCO2 (as salt: hydrochloride) [Example 16, (3R,4R)-1-[2-(5,7-Difluoro-2-oxoquinolin-1(2H)-yl)ethyl]-4-[(2,3-dihydro[1,4]dioxino[2,3-c]pyridin-7-ylmethyl)amino]piperidine-3-carboxylic acid] | > 190 °C |  |  | 
N#Cc1ccc2ccc(=O)n(CCN3CCC(NCc4cc5c(cn4)OCCO5)CC3)c2c1 [Example 5, 1-(2-{4-[(2,3-Dihydro[1,4]dioxino[2,3-c]pyridin-7-ylmethyl)amino]piperidin-1-yl}ethyl)-2-oxo-1,2-dihydroquinoline-7-carbonitrile] |  | 0.5 (≈ 1.12 µM) | 0.12 | IC50 (GyrB ATPase): 157 nM; IC50 (DNA gyrase; 0.6 nM DNA gyrase, relaxed pBR322 plasmid, 1 hour, read-out: gyrase supercoiling (converted)): 114 nM
Cn1c(=O)c2ccc(F)cc2n(CCN2CCC(NCc3ccc4c(n3)NC(=O)CO4)CC2)c1=O [Example 66, 7-Fluoro-3-methyl-1-[2-(4-{[(3-oxo-3,4-dihydro-2H-pyrido[3,2-b][1,4]oxazin-6-yl)methyl]amino}piperidin-1-yl)ethyl]quinazoline-2,4(1H,3H)-dione] |  | 4 (≈ 8.29 µM) | 8 | IC50 (GyrB ATPase): 622 nM
O=C1COc2ccc(F)cc2N1CCN1CCC(NCc2cc3c(cn2)OCCO3)CC1 [Example 26, 4-(2-{4-[(2,3-Dihydro[1,4]dioxino[2,3-c]pyridin-7-ylmethyl)amino]piperidin-1-yl}ethyl)-6-fluoro-2H-1,4-benzoxazin-3(4H)-one] |  | 1 (≈ 2.26 µM) | 0.25 | pIC50 (DNA gyrase): 6.02
O=c1ccc2ccc(F)cc2n1CCN1CCC(NCc2cc3c(cn2)OCCO3)CC1 (as salt: HCl) [Example 10, 1-(2-{4-[(2,3-Dihydro[1,4]dioxino[2,3-c]pyridin-7-ylmethyl)amino]piperidin-1-yl}ethyl)-7-fluoroquinolin-2(1H)-one] | > 275 °C (dec.) |  |  | 
COc1ccc2c(=O)ccn(CCN3CCC(NCc4cc5c(cn4)OCCO5)CC3)c2c1 (as salt: hydrochloride) [Example 2, 1-(2-{4-[(2,3-Dihydro[1,4]dioxino[2,3-c]pyridin-7-ylmethyl)amino]piperidin-1-yl}ethyl)-7-methoxyquinolin-4(1H)-one] | 260 °C |  |  | 
N#Cc1ccc2c(c1)N(CCN1CCC(NC/C=C/c3cc(F)ccc3F)CC1)C(=O)CO2 [Example 37, 4-[2-(4-{[(2E)-3-(2,5-Difluorophenyl)prop-2-en-1-yl]amino}piperidin-1-yl)ethyl]-3-oxo-3,4-dihydro-2H-1,4-benzoxazine-6-carbonitrile] |  | 0.25 (≈ 0.552 µM) | 0.06 | pIC50 (GyrB ATPase): 7.75
O=C1COc2ccccc2N1CCN1CCC(NCc2cc3c(cn2)OCCO3)CC1 [Example 49, 4-(2-{4-[(2,3-Dihydro[1,4]dioxino[2,3-c]pyridin-7-ylmethyl)amino]piperidin-1-yl}ethyl)-2H-1,4-benzoxazin-3(4H)-one] |  | 8 (≈ 18.8 µM) | 4 | pIC50 (DNA gyrase): 5.15
